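These data come from cells grown in 96-well plates and exposed to compound for 48 hours at five concentrations. GI50 is the concentration that inhibits growth by half. TGI: concentration producing complete growth inhibition.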 Bounds are passed on as bounds.

This passage reports TGI and GI50 results from PubChem BioAssay (NCI).

Assay in all cases: NCI tumour cell line growth inhibition, 48 h
Experiment [1] concerns NCI-H226 lung.
In experiment [2] the test system is NCI-H23 lung.
The test system of experiment [3] is HT29 colon.
Experiment [4] has as its system IGROV1 ovarian.
Experiment [5] deals with A549 NSCLC.
In experiment [6] the test system is M14 melanoma.
Experiment [7] has as its system K-562 leukemia.
In experiment [8] the test system is HCT-15 colon.
In experiment [9] the test system is RPMI-8226 leukemia.
Experiment [10] relates to SK-MEL-2 melanoma.

For the compound `CC(C)N(C(=O)C12C3C4C5(C(=O)O)C(C1C35I)C42C(=O)O)C(C)C` (stereo not given), the TGI in experiment [1], in [2], in experiment [3], in experiment [4], in experiment [5] and in [6] was greater than 100 µM in each case. In addition, the TGI in experiment [7] and in [8] was greater than 100 µM each time.

Consider `CN1CCN(Cc2ccc(NC(=O)c3[nH]ncc3Nc3ncnc4[nH]ccc34)cc2)CC1`, for which the GI50 was 0.205 µM in [1]; 0.295 µM in experiment [2]; 0.436 µM in experiment [4]; 0.742 µM in experiment [5]; 2.43 µM in [9]; 0.473 µM in experiment [6]. The GI50 in experiment [7] was 0.265 µM; in [10], 0.325 µM; in experiment [8], 1.01 µM. Further, the TGI in experiment [1] was 1.87 µM; in experiment [2], 1.08 µM; in [4], 10.7 µM; in experiment [5], 10.8 µM; in experiment [9], 6.59 µM; in [6] it was 8.66 µM. Moreover, the TGI was greater than 100 µM in [7], 0.921 µM in [10] and 62.7 µM in [8].

Consider `COc1ccc(NC(=O)CC(=O)N/N=C(\C)c2cc3ccccc3oc2=O)cc1`, for which the TGI in experiment [1], in [2], in [3], in [4], in experiment [5] and in experiment [9] was greater than 100 µM each time. In addition, the TGI in experiment [6], in experiment [7] and in experiment [8] was greater than 100 µM in each case.

`CN1CCN=C1c1nnn(-c2ccc([N+](=O)[O-])cc2)c1-c1ccccc1`: the TGI in experiment [1], in [2], in experiment [3], in [4], in experiment [5] and in experiment [6] was greater than 100 µM each time. Besides, the TGI in experiment [7], in experiment [10] and in experiment [8] was greater than 100 µM each time.

As for `CC12OC(C(=O)C13CC3)C1C(=O)c3c(O)ccc(O)c3C(=O)C12` (stereo not given), the GI50 is 14.4 µM in [2]; 16.2 µM in experiment [3]; 13.4 µM in [4]; 17.5 µM in [5]; 15.3 µM in [6]; 13.8 µM in experiment [7]. Besides, the GI50 is 33.9 µM in experiment [10] and 11 µM in experiment [8]. In addition, the TGI in [2] was determined as 31.1 µM; in experiment [3], 38.9 µM; in experiment [4] it was 29.7 µM; in experiment [5] it was 39.2 µM; in experiment [6], 30.2 µM; in experiment [7], 34.6 µM. The TGI in experiment [10] was greater than 100 µM; in experiment [8] it was 24.7 µM.

For `O=C(O)c1c2c(cc3c(=O)c4ccccc4[nH]c13)CCCC2`, the TGI in [1], in [2], in experiment [3], in experiment [4], in experiment [5] and in experiment [9] was greater than 100 µM throughout. Besides, the TGI in experiment [10] and in experiment [8] was greater than 100 µM in each case.

Regarding `Fc1ccc2c(c1)C1=C(CCC2)C(c2ccc(Cl)cc2)NC(=S)N1` (stereo not given), the GI50 in [1] is 35.2 µM; in experiment [2], 84.7 µM; in [3], 49.9 µM; in [4], 10.3 µM; in [5], 20.7 µM; in [9], 13.1 µM. Moreover, the GI50 was 40.9 µM in experiment [6], 32.4 µM in experiment [7] and 26.2 µM in [8]. Moreover, the TGI in [1] was greater than 100 µM; in experiment [2], greater than 100 µM; in experiment [3], greater than 100 µM; in experiment [4], greater than 100 µM; in experiment [5], greater than 100 µM; in experiment [9], 53.8 µM. Also, the TGI in [6], in experiment [7] and in experiment [8] was greater than 100 µM in each case.

Take `CC(C)(C)c1ccc(C2CC(=O)C3=C(C2)Nc2ccccc2N(C(=O)c2ccccc2Cl)C3c2ccc(F)cc2)cc1` (stereo not given): the GI50 in [1] is greater than 100 µM; in experiment [2], greater than 100 µM; in [4], greater than 100 µM; in [5], greater than 100 µM; in [9], 4.14 µM; in experiment [6], greater than 100 µM. In experiment [8], the GI50 is greater than 100 µM. For the same compound, the TGI in experiment [1], in [2], in [4], in [5], in experiment [9] and in experiment [6] was greater than 100 µM throughout. Further, the TGI in experiment [8] is greater than 100 µM.

`CN(C)C=N[C@@H](C(=O)O)c1ccccc1`: the TGI in [1], in [2], in experiment [3], in experiment [4], in experiment [5] and in experiment [9] was greater than 100 µM throughout. Also, the TGI in experiment [6], in [7] and in experiment [8] was greater than 100 µM throughout.

`CC(C)C1(NC(=O)C2CC3c4cccc5[nH]cc(c45)CC3N(C)C2)OC2(O)C3CCCN3C(=O)C(Cc3ccccc3)N2C1=O` (stereo not given): the TGI in experiment [2] is greater than 100 µM; in experiment [3] it was greater than 100 µM; in experiment [4] it was greater than 100 µM; in [5] it was greater than 100 µM; in experiment [9], 39.8 µM; in experiment [6], greater than 100 µM. The TGI in [10] and in experiment [8] was greater than 100 µM each time.

As to `CC1=C(CO)C(=O)O[C@@H]([C@@H](C)[C@H]2CC[C@H]3[C@@H]4C[C@H]5O[C@]56[C@@H](O)C=CC(=O)[C@]6(C)[C@H]4CC[C@]23C)C1`, the TGI in experiment [1] was found to be 2.86 µM; in experiment [2], 0.81 µM; in experiment [4], 0.544 µM; in experiment [5] it was 3.96 µM; in experiment [9], 37.5 µM; in experiment [6], 1.06 µM. Also, the TGI came out at 2.5 µM in [7], 1.93 µM in experiment [10] and 1.94 µM in experiment [8].

As to `O=[N+]([O-])c1cc(/C=N\NS(=O)(=O)c2ccc(Cl)cc2)c(O)c([N+](=O)[O-])c1`, the TGI in experiment [2] is 50.8 µM; in experiment [3], 58.9 µM; in experiment [4], greater than 100 µM; in experiment [5], greater than 100 µM; in experiment [9] it was 80.9 µM; in [6] it was 99.6 µM. The TGI in experiment [7] was 79.5 µM; in experiment [10], greater than 100 µM; in experiment [8], 53.1 µM.
